# Measured values published in US20150202181A1, “Method of and compounds for the reduction of alcoholic hangover” (priority 2014, published 2015).
# “Also recorded” adds a separate entry of the source.
# Key:
# [1] = chronic dosing for two years; cited from earlier work
# humans = settings: cited from earlier work
# aldehyde dehydrogenase = settings: humans; cited from earlier work
# [2] = system: alcoholic hangover symptoms; assay: Open-label and dose-finding studies in humans drinking alcoholic beverages
# [3] = system: acetaldehyde toxicity in rodents; settings: cited from earlier work
# rodents = settings: cited from earlier work
# [4] = after oral administration; cited from earlier work
# [5] = NAC compared with ALA; cited from earlier work
SMILES,No-observed-effect level [1] [mg/kg/day],Tolerability (humans; diabetics given 600 mg/day for four years),Effect on aldehyde dehydrogenase activity (aldehyde dehydrogenase),"Doses required to decrease alcohol hangover symptoms as monotherapy, compared with the combination [2]","Dose that must be ingested for any noticeable reduction of alcohol hangover symptoms ([2]; monotherapy, ingested prior to imbibing alcoholic beverages)",Protective effect against acetaldehyde toxicity [3],LD50 (rodents) [mg/kg],Oral absorption [4],"Outcome of high exposure (humans; human child, 8480 mg/kg over 72 hours)",LD50 (in words) (rodents),Relative solubility (water versus fat) [5]
"O=C(O)CCCC[C@@H]1CCSS1 [ALA, (R)-(+)-lipoic acid]",60,well-tolerated,increasing aldehyde dehydrogenase activity,much greater doses,at least 200 mg,same effect,> 2000,,,,
N[C@@H](CS)C(=O)O [L-cysteine],,,,,,,,not well-absorbed; also recorded: poorly absorbed,,,
"CC(=O)N[C@@H](CS)C(=O)O [NAC, N-acetyl-L-cysteine]",,,,much greater doses,,robust protective effects,,,survived with minor liver dysfunction,very high,more water soluble
